Source: patent publication US20150307938A1, “METHOD TO IDENTIFY A NOVEL CLASS OF IMMUNOLOGIC ADJUVANTS” (Lancell, L.L.C., priority 2011, published 2015)

Tested on: skin
Test: Affymetrix microarray of skin, DBP-4 hr and analogs vs. untreated; gene selection by log-2 fold change, Wilcoxon, Kendall tau (Tables 8, 9)
Assay type: in vivo, mouse
Settings: for Kendall: Kendall tau coefficient
[1] = DBP-4 hr vs. untreated, rank-sum p-value

CCCCOC(=O)c1ccccc1C(=O)OCCCC [DBP, dibutylphthalate]
Yes: Wilcoxon (2310016C08Rik NM_001190461_at, DBP-4 hr vs. untreated) | Wilcoxon (Adam8 NM_007403_at, DBP-4 hr vs. untreated) | Kendall (Adam8 NM_007403_at) | Wilcoxon (Atf3 NM_007498_at, DBP-4 hr vs. untreated) | Wilcoxon (Btg2 NM_007570_at, DBP-4 hr vs. untreated) | Kendall (Btg2 NM_007570_at) | Wilcoxon (Casp4 NM_007609_at, DBP-4 hr vs. untreated) | Wilcoxon (Cebpd NM_007679_at, DBP-4 hr vs. untreated) | Kendall (Csf2rb NM_007780_at) | Wilcoxon (Cxcl1 NM_008176_at, DBP-4 hr vs. untreated) | 1600029D21Rik (NM_029639_at) Wilcoxon (DBP-4 hr vs. untreated) | 2010002N04Rik (NM_134133_at) Wilcoxon (DBP-4 hr vs. untreated) | 2310016C08Rik (NM_023516_at) Wilcoxon (DBP-4 hr vs. untreated) | 1810011010Rik (NM_026931_at) Wilcoxon (DBP-4 hr vs. untreated) | Acot5 (NM_145444_at) Wilcoxon (DBP-4 hr vs. untreated) | Adamts4 (NM_172845_at) Wilcoxon (DBP-4 hr vs. untreated) | Angptl4 (NM_020581_at) Wilcoxon (DBP-4 hr vs. untreated) | Arc (NM_018790_at) Wilcoxon (DBP-4 hr vs. untreated) | Arid5a (NM_145996_at) Wilcoxon (DBP-4 hr vs. untreated) | Arid5a (NR_033310_at) Wilcoxon (DBP-4 hr vs. untreated) | Bcl3 (NM_033601_at) Wilcoxon (DBP-4 hr vs. untreated) | Ccl1 (NM_011329_at) Wilcoxon (DBP-4 hr vs. untreated) | Ccl2 (NM_011333_at) Wilcoxon (DBP-4 hr vs. untreated) | Ccl3 (NM_011337_at) Wilcoxon (DBP-4 hr vs. untreated) | Ccl7 (NM_013654_at) Wilcoxon (DBP-4 hr vs. untreated) | Ccl9 (NM_011338_at) Wilcoxon (DBP-4 hr vs. untreated) | Ccl12 (NM_011331_at) Wilcoxon (DBP-4 hr vs. untreated) | Ccl17 (NM_011332_at) Wilcoxon (DBP-4 hr vs. untreated) | Ccl20 (NM_016960_at) Wilcoxon (DBP-4 hr vs. untreated) | Cd86 (NM_019388_at) Wilcoxon (DBP-4 hr vs. untreated) | Cd207 (NM_144943_at) Wilcoxon (DBP-4 hr vs. untreated) | Clec4e (NM_019948_at) Wilcoxon (DBP-4 hr vs. untreated) | Clec7a (NM_020008_at) Wilcoxon (DBP-4 hr vs. untreated) | Clec4d (NM_010819_at) Wilcoxon (DBP-4 hr vs. untreated) | Crem (NM_013498_at) Wilcoxon (DBP-4 hr vs. untreated) | Cxcl16 (NM_023158_at) Wilcoxon (DBP-4 hr vs. untreated) | Cyr61 (NM_010516_at) Wilcoxon (DBP-4 hr vs. untreated) | Dusp6 (NM_026268_at) Wilcoxon (DBP-4 hr vs. untreated) | Epgn (NM_053087_at) Wilcoxon (DBP-4 hr vs. untreated) | Gzmb (NM_013542_at) Wilcoxon (DBP-4 hr vs. untreated) | Havcr2 (NM_134250_at) Wilcoxon (DBP-4 hr vs. untreated) | Ier3 (NM_133662_at) Wilcoxon (DBP-4 hr vs. untreated) | Ifi202b (NM_011940_at) Wilcoxon (DBP-4 hr vs. untreated) | Il1f6 (NM_019450_at) Wilcoxon (DBP-4 hr vs. untreated) | Il6 (NM_031168_at) Wilcoxon (DBP-4 hr vs. untreated) | Il20 (NM_021380_at) Wilcoxon (DBP-4 hr vs. untreated) | Klk6 (NM_011177_at) Wilcoxon (DBP-4 hr vs. untreated) | Krt25 (NM_133730_at) Wilcoxon (DBP-4 hr vs. untreated) | Krt27 (NM_010666_at) Wilcoxon (DBP-4 hr vs. untreated) | Krt71 (NM_019956_at) Wilcoxon (DBP-4 hr vs. untreated) | Krtap4-16 (NM_001013823_at) Wilcoxon (DBP-4 hr vs. untreated) | LOC100044068 (XM_001473873_at) Wilcoxon (DBP-4 hr vs. untreated) | LOC100504977 (XM_003085794_at) Wilcoxon (DBP-4 hr vs. untreated) | Maff (NM_010755_at) Wilcoxon (DBP-4 hr vs. untreated) | Mcoln2 (NM_026656_at) Wilcoxon (DBP-4 hr vs. untreated) | NA (AFFX-18SRNAMur/X00686_3_at) Wilcoxon (DBP-4 hr vs. untreated) | NA (AFFX-18SRNAMur/X00686_5_at) Wilcoxon (DBP-4 hr vs. untreated) | NA (AFFX-18SRNAMur/X00686_M_at) Wilcoxon (DBP-4 hr vs. untreated) | NA (AFFX-BioB-3_at) Wilcoxon (DBP-4 hr vs. untreated) | NA (AFFX-BioB-5_at) Wilcoxon (DBP-4 hr vs. untreated) | NA (AFFX-BioB-M_at) Wilcoxon (DBP-4 hr vs. untreated) | NA (AFFX-BioC-3_at) Wilcoxon (DBP-4 hr vs. untreated) | NA (AFFX-BioC-5_at) Wilcoxon (DBP-4 hr vs. untreated) | NA (AFFX-BioDn-3_at) Wilcoxon (DBP-4 hr vs. untreated) | NA (AFFX-BioDn-5_at) Wilcoxon (DBP-4 hr vs. untreated) | NA (AFFX-ThrX-5_at) Wilcoxon (DBP-4 hr vs. untreated) | Nfil3 (NM_017373_at) Wilcoxon (DBP-4 hr vs. untreated) | Nfkbiz (NM_030612_at) Wilcoxon (DBP-4 hr vs. untreated) | Nr4a2 (NM_013613_at) Wilcoxon (DBP-4 hr vs. untreated) | Pde4b (NM_019840_at) Wilcoxon (DBP-4 hr vs. untreated) | Pdk4 (NM_013743_at) Wilcoxon (DBP-4 hr vs. untreated) | Plek (NM_019549_at) Wilcoxon (DBP-4 hr vs. untreated) | Pmaip1 (NM_021451_at) Wilcoxon (DBP-4 hr vs. untreated) | Prss22 (NM_133731_at) Wilcoxon (DBP-4 hr vs. untreated) | Pyy (NM_145435_at) Wilcoxon (DBP-4 hr vs. untreated) | Rab20 (NM_011227_at) Wilcoxon (DBP-4 hr vs. untreated) | Rgs1 (NM_015811_at) Wilcoxon (DBP-4 hr vs. untreated) | Saa3 (NM_011315_at) Wilcoxon (DBP-4 hr vs. untreated) | Slc5a1 (NM_019810_at) Wilcoxon (DBP-4 hr vs. untreated) | Slc7a5 (NM_011404_at) Wilcoxon (DBP-4 hr vs. untreated) | Slc34a2 (NM_011402_at) Wilcoxon (DBP-4 hr vs. untreated) | Slc39a8 (NM_026228_at) Wilcoxon (DBP-4 hr vs. untreated) | Slfn2 (NM_011408_at) Wilcoxon (DBP-4 hr vs. untreated) | Slfn4 (NM_011410_at) Wilcoxon (DBP-4 hr vs. untreated) | Slpi (NM_011414_at) Wilcoxon (DBP-4 hr vs. untreated) | Smox (NM_145533_at) Wilcoxon (DBP-4 hr vs. untreated) | Stfa3 (NM_025288_at) Wilcoxon (DBP-4 hr vs. untreated) | Timp1 (NM_011593_at) Wilcoxon (DBP-4 hr vs. untreated) | Tlr2 (NM_011905_at) Wilcoxon (DBP-4 hr vs. untreated) | Tnf (NM_013693_at) Wilcoxon (DBP-4 hr vs. untreated) | Tnfrsf12a (NM_013749_at) Wilcoxon (DBP-4 hr vs. untreated) | Tslp (NM_021367_at) Wilcoxon (DBP-4 hr vs. untreated) | Tslp (NR_033206_at) Wilcoxon (DBP-4 hr vs. untreated) | Tubb6 (NM_026473_at) Wilcoxon (DBP-4 hr vs. untreated) | Zc3h12a (NM_153159_at) Wilcoxon (DBP-4 hr vs. untreated) | Zfp36 (NM_011756_at) Wilcoxon (DBP-4 hr vs. untreated) | 1110032A04Rik NM_133675_at Wilcoxon [1] | 2610528A11Rik XR_105647_at Wilcoxon [1] | 1500015010Rik NM_024283_at Wilcoxon [1] | 3110079015Rik NM_028473_at Wilcoxon [1] | A2m NM_175628_at Wilcoxon [1] | AY026312 NM_133359_at Wilcoxon [1] | Actn2 NM_033268_at Wilcoxon [1] | Akr1c14 NM_134072_at Wilcoxon [1] | Aox4 NM_023631_at Wilcoxon [1] | Asb5 NM_029569_at Wilcoxon [1] | Ccl8 NM_021443_at Wilcoxon [1] | Ccl24 NM_019577_at Wilcoxon [1] | Cd209d NM_130904_at Wilcoxon [1] | Ckmt2 NM_198415_at Wilcoxon [1] | Cldn8 NM_018778_at Wilcoxon [1] | Clec4n NM_020001_at Wilcoxon [1] | Cmya5 NM_023821_at Wilcoxon [1] | Comp NM_016685_at Wilcoxon [1] | Corin NM_016869_at Wilcoxon [1] | Crispld1 NM_031402_at Wilcoxon [1] | Cxcl10 NM_021274_at Wilcoxon [1] | Cxcr6 NM_030712_at Wilcoxon [1] | Dbp NM_016974_at Wilcoxon [1] | Ear5 NM_019398_at Wilcoxon [1] | Gm10228 XM_001474297_at Wilcoxon [1] | Gm10228 XM_003086004_at Wilcoxon [1]
No: Kendall (2310016C08Rik NM_001190461_at) | Kendall (Atf3 NM_007498_at) | Wilcoxon (Birc3 NM_007464_at, DBP-4 hr vs. untreated) | Kendall (Birc3 NM_007464_at) | Kendall (Casp4 NM_007609_at) | Wilcoxon (Cd44 NM_001039150_at, DBP-4 hr vs. untreated) | Kendall (Cd44 NM_001039150_at) | Wilcoxon (Cd44 NM_001039151_at, DBP-4 hr vs. untreated) | Kendall (Cd44 NM_001039151_at) | Kendall (Cebpd NM_007679_at) | Wilcoxon (Csf2rb NM_007780_at, DBP-4 hr vs. untreated) | Kendall (Cxcl1 NM_008176_at) | Abcc3 (NM_029600_at) Wilcoxon (DBP-4 hr vs. untreated) | Akap12 (NM_031185_at) Wilcoxon (DBP-4 hr vs. untreated) | Bcar3 (NM_013867_at) Wilcoxon (DBP-4 hr vs. untreated) | Bhlhe40 (NM_011498_at) Wilcoxon (DBP-4 hr vs. untreated) | Calcb (NM_054084_at) Wilcoxon (DBP-4 hr vs. untreated) | Clic4 (NM_013885_at) Wilcoxon (DBP-4 hr vs. untreated) | Cytip (NM_139200_at) Wilcoxon (DBP-4 hr vs. untreated) | Dusp7 (NM_153459_at) Wilcoxon (DBP-4 hr vs. untreated) | Ier2 (NM_010499_at) Wilcoxon (DBP-4 hr vs. untreated) | Jdp2 (NM_030887_at) Wilcoxon (DBP-4 hr vs. untreated) | Jun (NM_010591_at) Wilcoxon (DBP-4 hr vs. untreated) | Klrb1b (NM_030599_at) Wilcoxon (DBP-4 hr vs. untreated) | Krt35 (NM_016880_at) Wilcoxon (DBP-4 hr vs. untreated) | Map3k6 (NM_016693_at) Wilcoxon (DBP-4 hr vs. untreated) | Mt1 (NM_013602_at) Wilcoxon (DBP-4 hr vs. untreated) | Nfkbia (NM_010907_at) Wilcoxon (DBP-4 hr vs. untreated) | Otud7a (NM_130880_at) Wilcoxon (DBP-4 hr vs. untreated) | Plaur (NM_011113_at) Wilcoxon (DBP-4 hr vs. untreated) | Plscr1 (NM_011636_at) Wilcoxon (DBP-4 hr vs. untreated) | Ptges (NM_022415_at) Wilcoxon (DBP-4 hr vs. untreated) | Ramp3 (NM_019511_at) Wilcoxon (DBP-4 hr vs. untreated) | Rnf19b (NM_029219_at) Wilcoxon (DBP-4 hr vs. untreated) | Slc10a6 (NM_029415_at) Wilcoxon (DBP-4 hr vs. untreated) | Slc15a3 (NM_023044_at) Wilcoxon (DBP-4 hr vs. untreated) | Slc25a25 (NM_146118_at) Wilcoxon (DBP-4 hr vs. untreated) | Uap1 (NM_133806_at) Wilcoxon (DBP-4 hr vs. untreated) | Zfp593 (NM_024215_at) Wilcoxon (DBP-4 hr vs. untreated) | 2510002D24Rik NM_001033164_at Wilcoxon [1] | 2510009E07Rik NM_001001881_at Wilcoxon [1] | Aldh7a1 NM_001127338_at Wilcoxon [1] | Atp2a2 NM_001110140_at Wilcoxon [1] | Atp13a3 NM_001128094_at Wilcoxon [1] | Atp13a3 NM_001128096_at Wilcoxon [1] | Bcr NM_001081412_at Wilcoxon [1] | Camk2g NM_001039138_at Wilcoxon [1] | Camk2g NM_001039139_at Wilcoxon [1] | Cyth1 NM_001112699_at Wilcoxon [1] | Cyth1 NM_001112700_at Wilcoxon [1] | Deptor NM_001037937_at Wilcoxon [1] | Dlgap4 NM_001042487_at Wilcoxon [1] | Dlgap4 NM_001042488_at Wilcoxon [1] | Fam134b NM_001034851_at Wilcoxon [1] | Gcdh NM_001044744_at Wilcoxon [1]
